We go through 7 cell lines from the supplement of paper PMC10307832.

Common to all, as to test: relative viability (nuclei count vs DMSO), 5 days (fraction); higher = more cells survive
Compound in experiment [1]: C[C@@H](Oc1cc(-c2cnn(C3CCNCC3)c2)cnc1N)c1c(Cl)ccc(F)c1Cl [Crizotinib] + CS(=O)(=O)CCNCc1ccc(-c2ccc3ncnc(Nc4ccc(OCc5cccc(F)c5)c(Cl)c4)c3c2)o1 [Lapatinib] (partner 2 µM)
In outline: (§1)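 Lung cancer cell lines in 1536-well plates got either a single drug or a fixed anchor-drug dose together with five library-drug doses (not always all listed) in √10 steps, by pin tool, on the day after seeding. Nuclei were counted after 5 days, and relative viability is the treated-to-vehicle ratio of nuclei counts. Values are medians of duplicate plates.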

Compound in experiment [2]: O=C(c1cc(Cc2n[nH]c(=O)c3ccccc23)ccc1F)N1CCN(C(=O)C2CC2)CC1 [Olaparib] + NC(=O)Nc1cc(-c2cccc(F)c2)sc1C(=O)N[C@H]1CCCNC1 [AZD7762] (partner 0.2 µM)
In outline:
as §1

Compound in experiment [3]: CC(C)C[C@H](NC(=O)[C@H](CCc1ccccc1)NC(=O)CN1CCOCC1)C(=O)N[C@@H](Cc1ccccc1)C(=O)N[C@@H](CC(C)C)C(=O)[C@@]1(C)CO1 [Carfilzomib] + N=C(N)NC(=N)NCCc1ccccc1 [Phenformin] (partner 250 µM)
The gist of the method: as §1

Compound in experiment [4]: C[C@@H](Oc1cc(-c2cnn(C3CCNCC3)c2)cnc1N)c1c(Cl)ccc(F)c1Cl [Crizotinib] + CC(=O)c1c(C)c2cnc(Nc3ccc(N4CCNCC4)cn3)nc2n(C2CCCC2)c1=O [Palbociclib] (partner 0.5 µM)
In outline:
as §1

Take NCI-H3122: the relative viability in experiment [1] (first compound 0.01 µM) came to 0.985; in experiment [1] (first compound 0.03162 µM), 0.891; in experiment [1] (first compound 0.1 µM), 0.951; in experiment [1] (first compound 0.3162 µM) it was 0.962; in experiment [1] (first compound 1 µM), 0.763; in experiment [2] (first compound 0.08 µM) it was 1.03. The relative viability was 0.945 in experiment [2] (first compound 0.253 µM); 0.908 in experiment [2] (first compound 2.53 µM); 0.559 in experiment [2] (first compound 8 µM); 0.375 in experiment [3] (first compound 0.001 µM); 0.446 in experiment [3] (first compound 0.003162 µM); 0.366 in experiment [3] (first compound 0.01 µM). The relative viability is 0.278 in experiment [3] (first compound 0.03162 µM); 0.0931 in experiment [3] (first compound 0.1 µM); 0.176 in experiment [4] (first compound 0.01 µM); 0.184 in experiment [4] (first compound 0.03162 µM); 0.16 in experiment [4] (first compound 0.1 µM); 0.2 in experiment [4] (first compound 0.3162 µM). The relative viability in experiment [4] (first compound 1 µM) stood at 0.187.

Regarding LCLC-97TM1, the relative viability in experiment [1] (first compound 0.01 µM) turned out to be 1.08; in experiment [1] (first compound 0.03162 µM) it was 0.927; in experiment [1] (first compound 0.1 µM), 1.04; in experiment [1] (first compound 1 µM), 1.12; in experiment [2] (first compound 0.08 µM), 0.294; in experiment [2] (first compound 0.253 µM) it was 0.202. The relative viability in experiment [2] (first compound 8 µM) was found to be 0.168; in experiment [3] (first compound 0.001 µM), 0.423; in experiment [3] (first compound 0.003162 µM) it was 0.401; in experiment [3] (first compound 0.01 µM), 0.497; in experiment [3] (first compound 0.03162 µM), 0.302; in experiment [3] (first compound 0.1 µM), 0.147. The relative viability in experiment [4] (first compound 0.01 µM) is 0.233; in experiment [4] (first compound 0.03162 µM), 0.25; in experiment [4] (first compound 0.1 µM), 0.197; in experiment [4] (first compound 0.3162 µM), 0.212; in experiment [4] (first compound 1 µM) it was 0.205.

In the case of LXF-289, the relative viability is 0.902 in experiment [1] (first compound 0.01 µM); 0.886 in experiment [1] (first compound 0.03162 µM); 0.925 in experiment [1] (first compound 0.1 µM); 0.779 in experiment [1] (first compound 0.3162 µM); 0.872 in experiment [1] (first compound 1 µM); 1.27 in experiment [2] (first compound 0.08 µM). The relative viability in experiment [2] (first compound 0.253 µM) stood at 1.02; in experiment [2] (first compound 2.53 µM), 1.28; in experiment [2] (first compound 8 µM), 1.17; in experiment [3] (first compound 0.001 µM) it was 0.524; in experiment [3] (first compound 0.003162 µM), 0.519; in experiment [3] (first compound 0.01 µM), 0.393. The relative viability worked out at 0.226 in experiment [3] (first compound 0.03162 µM); 0.0577 in experiment [3] (first compound 0.1 µM); 0.583 in experiment [4] (first compound 0.01 µM); 0.591 in experiment [4] (first compound 0.03162 µM); 0.626 in experiment [4] (first compound 0.1 µM); 0.569 in experiment [4] (first compound 0.3162 µM). Also, in experiment [4] (first compound 1 µM), the relative viability worked out at 0.582.

In the case of HCC-78, the relative viability in experiment [1] (first compound 0.01 µM) was determined as 0.77; in experiment [1] (first compound 0.03162 µM), 0.828; in experiment [1] (first compound 0.1 µM) it was 0.697; in experiment [1] (first compound 0.3162 µM), 0.261; in experiment [1] (first compound 1 µM), 1.26; in experiment [2] (first compound 0.08 µM), 0.839. Further, the relative viability in experiment [2] (first compound 0.253 µM) worked out at 0.664; in experiment [2] (first compound 2.53 µM), 0.672; in experiment [2] (first compound 8 µM) it was 0.737; in experiment [3] (first compound 0.001 µM), 0.539; in experiment [3] (first compound 0.003162 µM), 0.683; in experiment [3] (first compound 0.01 µM), 0.78. Further, the relative viability in experiment [3] (first compound 0.03162 µM) is 0.668; in experiment [3] (first compound 0.1 µM), 0.235; in experiment [4] (first compound 0.01 µM), 0.431; in experiment [4] (first compound 0.03162 µM) it was 0.537; in experiment [4] (first compound 0.1 µM), 0.545; in experiment [4] (first compound 1 µM), 0.513.

Consider NCI-H2405, for which the relative viability in experiment [1] (first compound 0.01 µM) is 1.05; in experiment [1] (first compound 0.03162 µM), 0.975; in experiment [1] (first compound 0.1 µM) it was 0.999; in experiment [1] (first compound 0.3162 µM), 0.952; in experiment [2] (first compound 0.08 µM), 0.86; in experiment [2] (first compound 0.253 µM), 0.741. The relative viability in experiment [2] (first compound 2.53 µM) worked out at 0.632; in experiment [2] (first compound 8 µM) it was 0.636; in experiment [3] (first compound 0.003162 µM), 0.432; in experiment [3] (first compound 0.01 µM), 0.395; in experiment [3] (first compound 0.03162 µM) it was 0.298; in experiment [3] (first compound 0.1 µM), 0.129. Moreover, the relative viability in experiment [4] (first compound 0.01 µM) stood at 0.479; in experiment [4] (first compound 0.03162 µM), 0.515; in experiment [4] (first compound 0.1 µM) it was 0.509; in experiment [4] (first compound 0.3162 µM), 0.56; in experiment [4] (first compound 1 µM) it was 0.501.

With NCI-H727, the relative viability in experiment [1] (first compound 0.01 µM) came to 0.837; in experiment [1] (first compound 0.03162 µM), 0.749; in experiment [1] (first compound 0.1 µM), 1.15; in experiment [1] (first compound 0.3162 µM) it was 0.729; in experiment [1] (first compound 1 µM) it was 0.888; in experiment [2] (first compound 0.08 µM), 0.509. Besides, the relative viability in experiment [2] (first compound 0.253 µM) was 0.706; in experiment [2] (first compound 2.53 µM), 0.626; in experiment [2] (first compound 8 µM), 0.676; in experiment [3] (first compound 0.001 µM) it was 0.559; in experiment [3] (first compound 0.003162 µM), 0.626; in experiment [3] (first compound 0.01 µM), 0.573. Besides, the relative viability is 0.256 in experiment [3] (first compound 0.03162 µM); 0.182 in experiment [3] (first compound 0.1 µM); 0.703 in experiment [4] (first compound 0.01 µM); 0.621 in experiment [4] (first compound 0.03162 µM); 0.655 in experiment [4] (first compound 0.1 µM); 0.639 in experiment [4] (first compound 0.3162 µM). The relative viability in experiment [4] (first compound 1 µM) is 0.595.

Regarding LC-2-ad, the relative viability turned out to be 0.866 in experiment [1] (first compound 0.01 µM); 0.981 in experiment [1] (first compound 0.03162 µM); 1.03 in experiment [1] (first compound 0.1 µM); 0.54 in experiment [1] (first compound 1 µM); 0.89 in experiment [2] (first compound 0.08 µM); 0.76 in experiment [2] (first compound 0.253 µM). The relative viability came to 0.851 in experiment [2] (first compound 2.53 µM); 0.727 in experiment [2] (first compound 8 µM); 0.567 in experiment [3] (first compound 0.001 µM); 0.668 in experiment [3] (first compound 0.003162 µM); 0.612 in experiment [3] (first compound 0.01 µM); 0.453 in experiment [3] (first compound 0.03162 µM). For the same cell line, the relative viability came out at 0.181 in experiment [3] (first compound 0.1 µM); 0.525 in experiment [4] (first compound 0.01 µM); 0.504 in experiment [4] (first compound 0.03162 µM); 0.53 in experiment [4] (first compound 0.1 µM); 0.472 in experiment [4] (first compound 1 µM).
